ChEMBL document CHEMBL1159364, “Inhibition of [3H]-LSD binding to 5-HT7 receptors by flavonoids from Scutellaria lateriflora” (J Nat Prod, 2003)

Molecular target: 5-hydroxytryptamine receptor 7 (Homo sapiens, UniProt P34969)
Assay: Displacement of [3H]LSD from human 5HT7 receptor expressed in CHO cells
Assay type: cell-based

Sequence of 5-hydroxytryptamine receptor 7 (P34969 whole entry): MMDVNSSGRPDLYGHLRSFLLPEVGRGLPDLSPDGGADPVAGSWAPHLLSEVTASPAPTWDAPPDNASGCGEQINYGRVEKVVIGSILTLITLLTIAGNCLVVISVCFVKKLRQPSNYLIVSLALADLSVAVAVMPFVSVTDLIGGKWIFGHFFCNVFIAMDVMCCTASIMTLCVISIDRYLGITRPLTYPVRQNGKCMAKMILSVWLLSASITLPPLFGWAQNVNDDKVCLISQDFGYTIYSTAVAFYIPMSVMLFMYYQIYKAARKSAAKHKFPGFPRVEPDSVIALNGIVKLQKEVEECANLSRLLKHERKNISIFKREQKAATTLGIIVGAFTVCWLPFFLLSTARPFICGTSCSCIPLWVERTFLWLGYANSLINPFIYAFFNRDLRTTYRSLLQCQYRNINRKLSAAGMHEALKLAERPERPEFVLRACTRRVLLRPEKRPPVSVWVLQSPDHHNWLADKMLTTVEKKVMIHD

IC50	SMILES
179 µM	O=C1C[C@@H](c2ccccc2)Oc2cc(O[C@@H]3O[C@H](C(=O)O)[C@@H](O)[C@H](O)[C@H]3O)c(O)c(O)c21 [DIHYDROBAICALIN]
> 350 µM	O=c1cc(-c2ccccc2)oc2cc(O)c(O)c(O)c12 [BAICALEIN]
> 200 µM	O=C(O)[C@H]1O[C@@H](Oc2cc3oc(-c4ccccc4)cc(=O)c3c(O)c2O)[C@H](O)[C@@H](O)[C@@H]1O [BAICALIN]
135 µM	O=C(O)[C@H]1O[C@@H](Oc2cc3oc(-c4ccccc4O)cc(=O)c3c(O)c2O)[C@H](O)[C@@H](O)[C@@H]1O [IKONNIKOSIDE I]
> 350 µM	COc1c(O)cc(O)c2c(=O)cc(-c3ccccc3)oc12 [WOGONIN]

SMILES	IC50
O=C(O)[C@H]1O[C@@H](Oc2cc3oc(-c4ccc(O)cc4)cc(=O)c3c(O)c2O)[C@H](O)[C@@H](O)[C@@H]1O [SCUTELLARIN]	63.4 µM
